# Reference: ChEMBL document CHEMBL3885881, “DrugMatrix”
# Species on record: Rattus norvegicus
# Assay: DrugMatrix - Regimen: Daily Repeat
# Assay type: toxicity, organism-based, Sprague-Dawley
# Parameters: regimen Daily Repeat, gender Male, age 6-8 weeks
# Conditions: in vivo, po, route oral GAVAGE, vehicle .5 % CMC; for ABSOLUTE BASOPHIL / ABSOLUTE EOSINOPHIL / ABSOLUTE LYMPHOCYTE / ABSOLUTE MONOCYTE / ABSOLUTE SEGMENTED NEUTROPHIL / BASOPHIL / EOSINOPHIL / ERYTHROCYTE COUNT / HEMATOCRIT / HEMOGLOBIN / LEUKOCYTE COUNT / LYMPHOCYTE / MEAN CORPUSCULAR HEMOGLOBIN / MEAN CORPUSCULAR HEMOGLOBIN CONCENTRATION / MEAN CORPUSCULAR VOLUME / MONOCYTE / NEUTROPHIL / NUCLEATED RED BLOOD CELLS / PLATELET COUNT: tissue Blood; for ALANINE AMINOTRANSFERASE / ALBUMIN / ALKALINE PHOSPHATASE / ASPARTATE AMINOTRANSFERASE / BLOOD UREA NITROGEN / CARBON DIOXIDE / CHLORIDE / CHOLESTEROL / CREATINE PHOSPHOKINASE / CREATININE / GLUCOSE / LACTATE DEHYDROGENASE / LIPASE / PHOSPHORUS / POTASSIUM / SODIUM / TOTAL BILIRUBIN / TOTAL PROTEIN / URIC ACID: tissue Plasma
# [1] = 500 mg/kg, 120 h, dose level Low, time 5 day
# [2] = 1500 mg/kg, 72 h, dose level High, time 3 day
# [3] = 1500 mg/kg, 120 h, dose level High, time 5 day
smiles,measurement,setting,value
CC(C)(Sc1cc(C(C)(C)C)c(O)c(C(C)(C)C)c1)Sc1cc(C(C)(C)C)c(O)c(C(C)(C)C)c1 [PROBUCOL],ABSOLUTE BASOPHIL,[1],0 CELLS/uL
same,ABSOLUTE EOSINOPHIL,[1],211 CELLS/uL
same,ABSOLUTE LYMPHOCYTE,[1],10866.33 CELLS/uL
same,ABSOLUTE MONOCYTE,[1],0 CELLS/uL
same,ABSOLUTE SEGMENTED NEUTROPHIL,[1],1022.67 CELLS/uL
same,BASOPHIL,[1],0%
same,EOSINOPHIL,[1],1.67%
same,ERYTHROCYTE COUNT,[1],5.74 x10E6/uL
same,HEMATOCRIT,[1],36.53%
same,HEMOGLOBIN,[1],13.67 G/DL
same,LEUKOCYTE COUNT,[1],12.1 x10E3/uL
same,LYMPHOCYTE,[1],90%
same,MEAN CORPUSCULAR HEMOGLOBIN,[1],23.87 pg
same,MEAN CORPUSCULAR HEMOGLOBIN CONCENTRATION,[1],37.43 G/DL
same,MEAN CORPUSCULAR VOLUME,[1],63.7 fL
same,MONOCYTE,[1],0%
same,NEUTROPHIL,[1],8.33%
same,NUCLEATED RED BLOOD CELLS,[1],0 /100WBC
same,PLATELET COUNT,[1],1159.33 x10E3/uL
same,ALANINE AMINOTRANSFERASE,[1],45.67 u/L
same,ALBUMIN,[1],4.33 G/DL
same,ALKALINE PHOSPHATASE,[1],362 u/L
same,ASPARTATE AMINOTRANSFERASE,[1],76.33 u/L
same,BLOOD UREA NITROGEN,[1],15.33 mg/dL
same,CARBON DIOXIDE,[1],25.67 mmol/L
same,CHLORIDE,[1],102 MEQ/L
same,CHOLESTEROL,[1],70.33 mg/dL
same,CREATINE PHOSPHOKINASE,[1],180.67 u/L
same,CREATININE,[1],0.2 mg/dL
same,GLUCOSE,[1],163.67 mg/dL
same,LACTATE DEHYDROGENASE,[1],162.67 u/L
same,LIPASE,[1],9 u/L
same,PHOSPHORUS,[1],11.63 mg/dL
same,POTASSIUM,[1],6.21 MEQ/L
same,SODIUM,[1],144 MEQ/L
same,TOTAL BILIRUBIN,[1],0.2 mg/dL
same,TOTAL PROTEIN,[1],6.1 G/DL
same,URIC ACID,[1],1.83 mg/dL
same,ABSOLUTE BASOPHIL,[2],0 CELLS/uL
same,ABSOLUTE EOSINOPHIL,[2],183 CELLS/uL
same,ABSOLUTE LYMPHOCYTE,[2],12835.33 CELLS/uL
same,ABSOLUTE MONOCYTE,[2],38 CELLS/uL
same,ABSOLUTE SEGMENTED NEUTROPHIL,[2],1443.67 CELLS/uL
same,BASOPHIL,[2],0%
same,EOSINOPHIL,[2],1.33%
same,ERYTHROCYTE COUNT,[2],5.49 x10E6/uL
same,HEMATOCRIT,[2],34.77%
same,HEMOGLOBIN,[2],13.37 G/DL
same,LEUKOCYTE COUNT,[2],14.5 x10E3/uL
same,LYMPHOCYTE,[2],88.33%
same,MEAN CORPUSCULAR HEMOGLOBIN,[2],24.37 pg
same,MEAN CORPUSCULAR HEMOGLOBIN CONCENTRATION,[2],38.47 G/DL
same,MEAN CORPUSCULAR VOLUME,[2],63.33 fL
same,MONOCYTE,[2],0.33%
same,NEUTROPHIL,[2],10%
same,NUCLEATED RED BLOOD CELLS,[2],0 /100WBC
same,PLATELET COUNT,[2],1374.67 x10E3/uL
same,ALANINE AMINOTRANSFERASE,[2],49.33 u/L
same,ALBUMIN,[2],4.2 G/DL
same,ALKALINE PHOSPHATASE,[2],412 u/L
same,ASPARTATE AMINOTRANSFERASE,[2],77.33 u/L
same,BLOOD UREA NITROGEN,[2],14.67 mg/dL
same,CARBON DIOXIDE,[2],27.33 mmol/L
same,CHLORIDE,[2],100 MEQ/L
same,CHOLESTEROL,[2],65.67 mg/dL
same,CREATINE PHOSPHOKINASE,[2],249.33 u/L
same,CREATININE,[2],0.19 mg/dL
same,GLUCOSE,[2],153.67 mg/dL
same,LACTATE DEHYDROGENASE,[2],144 u/L
same,LIPASE,[2],9 u/L
same,PHOSPHORUS,[2],12.87 mg/dL
same,POTASSIUM,[2],7.14 MEQ/L
same,SODIUM,[2],143.67 MEQ/L
same,TOTAL BILIRUBIN,[2],0.17 mg/dL
same,TOTAL PROTEIN,[2],5.83 G/DL
same,URIC ACID,[2],1.67 mg/dL
same,ABSOLUTE BASOPHIL,[3],0 CELLS/uL
same,ABSOLUTE EOSINOPHIL,[3],76.67 CELLS/uL
same,ABSOLUTE LYMPHOCYTE,[3],11157.33 CELLS/uL
same,ABSOLUTE MONOCYTE,[3],39 CELLS/uL
same,ABSOLUTE SEGMENTED NEUTROPHIL,[3],1027 CELLS/uL
same,BASOPHIL,[3],0%
same,EOSINOPHIL,[3],0.67%
same,ERYTHROCYTE COUNT,[3],5.53 x10E6/uL
same,HEMATOCRIT,[3],34.87%
same,HEMOGLOBIN,[3],13.07 G/DL
same,LEUKOCYTE COUNT,[3],12.3 x10E3/uL
same,LYMPHOCYTE,[3],90.67%
same,MEAN CORPUSCULAR HEMOGLOBIN,[3],23.63 pg
same,MEAN CORPUSCULAR HEMOGLOBIN CONCENTRATION,[3],37.5 G/DL
same,MEAN CORPUSCULAR VOLUME,[3],63.03 fL
same,MONOCYTE,[3],0.33%
same,NEUTROPHIL,[3],8.33%
same,NUCLEATED RED BLOOD CELLS,[3],0 /100WBC
same,PLATELET COUNT,[3],1307 x10E3/uL
same,ALANINE AMINOTRANSFERASE,[3],47.67 u/L
same,ALBUMIN,[3],4.33 G/DL
same,ALKALINE PHOSPHATASE,[3],423.67 u/L
same,ASPARTATE AMINOTRANSFERASE,[3],74 u/L
same,BLOOD UREA NITROGEN,[3],15.33 mg/dL
same,CARBON DIOXIDE,[3],26.33 mmol/L
same,CHLORIDE,[3],102.33 MEQ/L
same,CHOLESTEROL,[3],63 mg/dL
same,CREATINE PHOSPHOKINASE,[3],227.67 u/L
same,CREATININE,[3],0.2 mg/dL
same,GLUCOSE,[3],158.67 mg/dL
same,LACTATE DEHYDROGENASE,[3],174.33 u/L
same,LIPASE,[3],8.33 u/L
same,PHOSPHORUS,[3],12.1 mg/dL
same,POTASSIUM,[3],6.79 MEQ/L
same,SODIUM,[3],145.27 MEQ/L
same,TOTAL BILIRUBIN,[3],0.2 mg/dL
same,TOTAL PROTEIN,[3],6.13 G/DL
same,URIC ACID,[3],1.63 mg/dL
